Papp A→B, Papp B→A and efflux ratio data for 16 compounds are collected here from patent US12102648B2, “Orally-bioavailable nucleoside analogs” (priority 2021, dated 2024).

A short description of the data set: in vitro. Format: in vitro ADME. Conditions: human. The protocol:
The bidirectional permeability of compounds across the Caco-2 cell monolayer was assessed. The Caco-2 model is a widely used in vitro model for small intestinal absorption and potential for efflux.
Cell culture. Caco-2 cells were grown in DMEM supplemented with 10% fetal bovine serum (FBS), 1% Penicillin-Streptomycin and 1% MEM NEAA. The cells were incubated at 37° C., 5% CO2/95% air and saturated humidity. After reaching 80-90% confluency, the cells were gently detached with trypsin. Cells at passage 39 were seeded on the 24-well BD insert system at the density of 8×10^4 cells/cm^2 and cultured for 19 days with medium changed every 2-3 days. Measure the transepithelial electrical resistance (TEER) value of each well. The wells can be used only when their TEER values are greater than 600 Ohms/cm^2.
Transport assay. After removing the cell culture medium from the 24-well insert plate, the cells were rinsed with warm transport buffer. Appropriate dosing and receiving solutions were applied to the donor and receiver chambers to initiate the transport assay in apical to basolateral (A to B) or basolateral to apical (B to A) directions ([…] for apical and basolateral wells, respectively). Duplicate wells in each direction were used for the test compound and control compound. The plate was incubated in CO2 incubator at 37° C., with 5% CO2/95% air and saturated humidity without shaking. The sample after 10-minute incubation was used as the T0 sample, and the sample after 90-minute incubation was used as the T90 sample. To and T90 samples were collected from the donor and receiver side of each well at the designed timepoint, mixed with the transport buffer and acetonitrile/MeOH (1:1, v/v) and the internal standard for LC/MS/MS analysis. All samples were vortexed and centrifuged at 4000 rpm at 4° C. for 15 minutes, diluted with pure water and stored at 4° C. before bioanalysis by LC/MS/MS.
Sample analysis. The concentrations of test compounds and control compounds in Caco-2 cells were quantitatively determined by LC/MS/MS method after protein precipitation.
Calculations. The apparent permeability (Papp, cm/s), efflux ratio (ER) and recovery parameters were calculated for Caco-2 drug transport assay using the following equations:
[formula] [formula] where VR is the solution volume in the receiver chamber (0.4 mL on the apical side, 1.2 mL on the basolateral side); Area is the surface area for the insert membrane, i.e., 0.3 cm^2 for the area of the monolayer; Time is incubation time, expressed in seconds, i.e., 5400 s (90 min) for the current experiment; Co is the initial concentration of test compound or peak area ratio of control compounds in the donor chamber (μM); VD is the volume in the donor chambers (0.4 mL on the apical side, 1.2 mL on the basolateral side); CD and CR are the final concentrations of test compounds or peak area ratio of control compounds in donor and receiver chambers, respectively.
Compounds with Papp<1.0 are classified as low permeability, Papp between 1-10 are classified as medium permeability, and Papp≥10 are classified as high permeability. An efflux ratio (ER)>2 indicates the compounds are potential substrates for intestinal cell efflux transporters.

The mark [1] stands for this setting: Caco-2 monolayer, apical to basolateral, 90-minute incubation, read-out: Papp, A-B.
The mark [2] stands for this setting: Caco-2 monolayer, basolateral to apical, 90-minute incubation, read-out: Papp, B-A.
[3] abbreviates: Caco-2 monolayer, ER>2 indicates potential efflux transporter substrate, read-out: ER (efflux ratio).

Structures are written as SMILES. Read-outs that look alike come from different tables or passages of the source.

For `CC(=O)O[C@H]1[C@@H](O)[C@](C#N)(c2ccc3c(N)ncnn23)O[C@@H]1COC(=O)CC1CCCCC1` [Compound 29, ((2R,3S,4R,5R)-3-acetoxy-5-(4-aminopyrrolo[2,1-f][1,2,4]triazin-7-yl)-5-cyano-4-hydroxytetrahydrofuran-2-yl)methyl 2-cyclohexylacetate], where the note is “Caco-2”, the apical-to-basolateral permeability (Papp A→B) (usually the apparent permeability from the apical to the basolateral side of a cell layer) at 90 min amounted to 2 ×10⁻⁶ cm/s; the apparent permeability from basolateral to apical (Papp B→A) (as a rule, the apparent permeability from the basolateral to the apical side of a cell layer) at 90 min is 2.1 ×10⁻⁶ cm/s; the efflux ratio at 90 min is 1.1.

On to `CC(C)C(=O)O[C@H]1[C@@H](O)[C@](C#N)(c2ccc3c(N)ncnn23)O[C@@H]1COC(=O)CC1CCCCC1` [Compound 30, (2R,3S,4R,5R)-5-(4-aminopyrrolo[2,1-f][1,2,4]triazin-7-yl)-5-cyano-2-((2-cyclohexylacetoxy)methyl)-4-hydroxytetrahydrofuran-3-yl isobutyrate], for which, under “Caco-2”, the Papp A→B at 90 min turned out to be 7.3 ×10⁻⁶ cm/s, the apparent permeability from basolateral to apical (Papp B→A) at 90 min was determined as 7.1 ×10⁻⁶ cm/s and the efflux ratio at 90 min is 1.

Take `CCC(=O)O[C@H]1[C@@H](O)[C@](C#N)(c2ccc3c(N)ncnn23)O[C@@H]1COC(=O)CC1CCCCC1` [Compound 31, (2R,3S,4R,5R)-5-(4-aminopyrrolo[2,1-f][1,2,4]triazin-7-yl)-5-cyano-2-((2-cyclohexylacetoxy)methyl)-4-hydroxytetrahydrofuran-3-yl propionate]: under “Caco-2”, the apical-to-basolateral permeability (Papp A→B) at 90 min was found to be 5.6 ×10⁻⁶ cm/s, the Papp B→A at 90 min stood at 5.6 ×10⁻⁶ cm/s and the efflux ratio at 90 min is 1.

With `CC(C)(C)C(=O)OCO[C@H]1[C@@H](O)[C@](C#N)(c2ccc3c(N)ncnn23)O[C@@H]1COC(=O)CC1CCCCC1` [Compound 32, (((2R,3S,4R,5R)-5-(4-aminopyrrolo[2,1-f][1,2,4]triazin-7-yl)-5-cyano-2-((2-cyclohexylacetoxy)methyl)-4-hydroxytetrahydrofuran-3-yl)oxy)methyl pivalate], where the note is “Caco-2”, the Papp A→B at 90 min stood at 6.9 ×10⁻⁶ cm/s, the Papp B→A at 90 min was 5.5 ×10⁻⁶ cm/s and the efflux ratio at 90 min worked out at 0.8.

As to `CC(C)[C@H](N)C(=O)OC[C@H]1O[C@@](C#N)(c2ccc3c(N)ncnn23)[C@H](O)[C@@H]1OC(=O)CC1CCCCC1` [Compound 34, ((2R,3S,4R,5R)-5-(4-aminopyrrolo[2,1-f][1,2,4]triazin-7-yl)-5-cyano-3-(2-cyclohexylacetoxy)-4-hydroxytetrahydrofuran-2-yl)methyl L-valinate], where the note is “Caco-2”, the apparent permeability from apical to basolateral (Papp A→B) at 90 min is 1.6 ×10⁻⁶ cm/s, the Papp B→A at 90 min amounted to 4.8 ×10⁻⁶ cm/s and the efflux ratio at 90 min was 3.

Take `CC(C)[C@H](N)C(=O)OC[C@H]1O[C@@](C#N)(c2ccc3c(N)ncnn23)[C@H](O)[C@@H]1OC(=O)Cc1ccccc1` [Compound 36, ((2R,3S,4R,5R)-5-(4-aminopyrrolo[2,1-f][1,2,4]triazin-7-yl)-5-cyano-4-hydroxy-3-(2-phenylacetoxy)tetrahydrofuran-2-yl)methyl L-valinate]: the Papp A→B at 90 min under setting [1] was 1.1 ×10⁻⁶ cm/s. Besides, the Papp B→A at 90 min under setting [2] came out at 10.3 ×10⁻⁶ cm/s. Besides, the efflux ratio at 90 min under setting [3] was 9.8.

Take `CC(=O)O[C@H]1[C@@H](O)[C@](C#N)(c2ccc3c(N)ncnn23)O[C@@H]1COC(=O)[C@@H](N)C(C)C` [Compound 37, ((2R,3S,4R,5R)-3-acetoxy-5-(4-aminopyrrolo[2,1-f][1,2,4]triazin-7-yl)-5-cyano-4-hydroxytetrahydrofuran-2-yl)methyl L-valinate]: for the setting “Caco-2”, the apical-to-basolateral permeability (Papp A→B) at 90 min worked out at 0.37 ×10⁻⁶ cm/s, the apparent permeability from basolateral to apical (Papp B→A) at 90 min came out at 0.12 ×10⁻⁶ cm/s and the efflux ratio at 90 min was 0.33.

Regarding `CC(C)C(=O)O[C@H]1[C@@H](O)[C@](C#N)(c2ccc3c(N)ncnn23)O[C@@H]1COC(=O)[C@@H](N)C(C)C` [Compound 38, ((2R,3S,4R,5R)-5-(4-aminopyrrolo[2,1-f][1,2,4]triazin-7-yl)-5-cyano-4-hydroxy-3-(isobutyryloxy)tetrahydrofuran-2-yl)methyl L-valinate], under “Caco-2”, the apparent permeability from apical to basolateral (Papp A→B) at 90 min stood at 0.22 ×10⁻⁶ cm/s, the basolateral-to-apical permeability (Papp B→A) at 90 min is 3.3 ×10⁻⁶ cm/s and the efflux ratio at 90 min is 15.

On to `CCC(=O)O[C@H]1[C@@H](O)[C@](C#N)(c2ccc3c(N)ncnn23)O[C@@H]1COC(=O)[C@@H](N)C(C)C` [Compound 39, ((2R,3S,4R,5R)-5-(4-aminopyrrolo[2,1-f][1,2,4]triazin-7-yl)-5-cyano-4-hydroxy-3-(propionyloxy)tetrahydrofuran-2-yl)methyl L-valinate], for which the apparent permeability from apical to basolateral (Papp A→B) at 90 min under setting [1] stood at 0.23 ×10⁻⁶ cm/s. In addition, under setting [2], the basolateral-to-apical permeability (Papp B→A) at 90 min was 2.3 ×10⁻⁶ cm/s. Further, the efflux ratio at 90 min under setting [3] was 10.

For `CC(C)CC(=O)O[C@H]1[C@@H](O)[C@](C#N)(c2ccc3c(N)ncnn23)O[C@@H]1COC(=O)Cc1ccccc1` [Compound 41, (2R,3S,4R,5R)-5-(4-aminopyrrolo[2,1-f][1,2,4]triazin-7-yl)-5-cyano-4-hydroxy-2-((2-phenylacetoxy)methyl)tetrahydrofuran-3-yl 3-methylbutanoate], the apical-to-basolateral permeability (Papp A→B) at 90 min under setting [1] amounted to 19 ×10⁻⁶ cm/s. In addition, the apparent permeability from basolateral to apical (Papp B→A) at 90 min under setting [2] was found to be 31 ×10⁻⁶ cm/s. The efflux ratio at 90 min under setting [3] came to 1.6.

For the compound `CC(C)[C@H](N)C(=O)O[C@H]1[C@@H](O)[C@](C#N)(c2ccc3c(N)ncnn23)O[C@@H]1COC(=O)Cc1ccccc1` [Compound 43, (2R,3S,4R,5R)-5-{4-aminopyrrolo[2,1-f][1,2,4]triazin-7-yl}-5-cyano-4-hydroxy-2-{[(2-phenylacetyl)oxy]methyl}oxolan-3-yl (2S)-2-amino-3-methylbutanoate], under setting [1], the Papp A→B at 90 min came to 0.74 ×10⁻⁶ cm/s. For the same compound, the Papp B→A at 90 min under setting [2] amounted to 0.22 ×10⁻⁶ cm/s. Further, under setting [3], the efflux ratio at 90 min amounted to 0.3.

`N#C[C@@]1(c2ccc3c(N)ncnn23)O[C@H](COC(=O)Cc2ccccc2)[C@@H](OC(=O)Cc2ccccc2)[C@H]1O` [Compound 44, (2R,3S,4R,5R)-5-(4-aminopyrrolo[2,1-f][1,2,4]triazin-7-yl)-5-cyano-4-hydroxy-2-((2-phenylacetoxy)methyl)tetrahydrofuran-3-yl 2-phenylacetate]: the apical-to-basolateral permeability (Papp A→B) at 90 min under setting [1] was determined as 9.8 ×10⁻⁶ cm/s. The apparent permeability from basolateral to apical (Papp B→A) at 90 min under setting [2] stood at 25 ×10⁻⁶ cm/s. Besides, under setting [3], the efflux ratio at 90 min amounted to 2.5.

Regarding `CC(=O)O[C@H]1[C@@H](O)[C@](C#N)(c2ccc3c(N)ncnn23)O[C@@H]1COC(=O)Cc1ccccc1` [Compound 45, ((2R,3S,4R,5R)-3-acetoxy-5-(4-aminopyrrolo[2,1-f][1,2,4]triazin-7-yl)-5-cyano-4-hydroxytetrahydrofuran-2-yl)methyl 2-phenylacetate], the Papp A→B at 90 min under setting [1] was 0.8 ×10⁻⁶ cm/s. Besides, the Papp B→A at 90 min under setting [2] is 3.4 ×10⁻⁶ cm/s. In addition, the efflux ratio at 90 min under setting [3] amounted to 4.3.

For `CC(C)C(=O)O[C@H]1[C@@H](O)[C@](C#N)(c2ccc3c(N)ncnn23)O[C@@H]1COC(=O)Cc1ccccc1` [Compound 46, (2R,3S,4R,5R)-5-(4-aminopyrrolo[2,1-f][1,2,4]triazin-7-yl)-5-cyano-4-hydroxy-2-((2-phenylacetoxy)methyl)tetrahydrofuran-3-yl isobutyrate], the Papp A→B at 90 min under setting [1] turned out to be 2.7 ×10⁻⁶ cm/s. Also, under setting [2], the apparent permeability from basolateral to apical (Papp B→A) at 90 min is 4.8 ×10⁻⁶ cm/s. The efflux ratio at 90 min under setting [3] turned out to be 1.8.

Take `CCC(=O)O[C@H]1[C@@H](O)[C@](C#N)(c2ccc3c(N)ncnn23)O[C@@H]1COC(=O)Cc1ccccc1` [Compound 47, (2R,3S,4R,5R)-5-(4-aminopyrrolo[2,1-f][1,2,4]triazin-7-yl)-5-cyano-4-hydroxy-2-((2-phenylacetoxy)methyl)tetrahydrofuran-3-yl propionate]: the apical-to-basolateral permeability (Papp A→B) at 90 min under setting [1] came out at 2 ×10⁻⁶ cm/s. Moreover, the basolateral-to-apical permeability (Papp B→A) at 90 min under setting [2] was 5.1 ×10⁻⁶ cm/s. For the same compound, the efflux ratio at 90 min under setting [3] stood at 2.5.

Take `CC(C)(C)C(=O)OCO[C@H]1[C@@H](O)[C@](C#N)(c2ccc3c(N)ncnn23)O[C@@H]1COC(=O)Cc1ccccc1` [Compound 48, {[(2R,3S,4R,5R)-5-{4-aminopyrrolo[2,1-f][1,2,4]triazin-7-yl}-5-cyano-4-hydroxy-2-{[(2-phenylacetyl)oxy]methyl}oxolan-3-yl]oxy}methyl 2,2-dimethylpropanoate]: the Papp A→B at 90 min under setting [1] stood at 6.9 ×10⁻⁶ cm/s. The Papp B→A at 90 min under setting [2] amounted to 1.9 ×10⁻⁶ cm/s. The efflux ratio at 90 min under setting [3] came to 0.27.
